Test results as given in patent US9751854B2 (Millennium Pharmaceuticals, Inc., priority 2014, dated 2017).

Biological target: human VPS34 (Homo sapiens (Human), UniProt Q8NEB9)
Assay: Human VPS34 enzyme assay (Adapta TR-FRET ADP detection)
Type: biochemical
Conditions: IC50 range class

Sequence of human VPS34 (Q8NEB9 whole entry): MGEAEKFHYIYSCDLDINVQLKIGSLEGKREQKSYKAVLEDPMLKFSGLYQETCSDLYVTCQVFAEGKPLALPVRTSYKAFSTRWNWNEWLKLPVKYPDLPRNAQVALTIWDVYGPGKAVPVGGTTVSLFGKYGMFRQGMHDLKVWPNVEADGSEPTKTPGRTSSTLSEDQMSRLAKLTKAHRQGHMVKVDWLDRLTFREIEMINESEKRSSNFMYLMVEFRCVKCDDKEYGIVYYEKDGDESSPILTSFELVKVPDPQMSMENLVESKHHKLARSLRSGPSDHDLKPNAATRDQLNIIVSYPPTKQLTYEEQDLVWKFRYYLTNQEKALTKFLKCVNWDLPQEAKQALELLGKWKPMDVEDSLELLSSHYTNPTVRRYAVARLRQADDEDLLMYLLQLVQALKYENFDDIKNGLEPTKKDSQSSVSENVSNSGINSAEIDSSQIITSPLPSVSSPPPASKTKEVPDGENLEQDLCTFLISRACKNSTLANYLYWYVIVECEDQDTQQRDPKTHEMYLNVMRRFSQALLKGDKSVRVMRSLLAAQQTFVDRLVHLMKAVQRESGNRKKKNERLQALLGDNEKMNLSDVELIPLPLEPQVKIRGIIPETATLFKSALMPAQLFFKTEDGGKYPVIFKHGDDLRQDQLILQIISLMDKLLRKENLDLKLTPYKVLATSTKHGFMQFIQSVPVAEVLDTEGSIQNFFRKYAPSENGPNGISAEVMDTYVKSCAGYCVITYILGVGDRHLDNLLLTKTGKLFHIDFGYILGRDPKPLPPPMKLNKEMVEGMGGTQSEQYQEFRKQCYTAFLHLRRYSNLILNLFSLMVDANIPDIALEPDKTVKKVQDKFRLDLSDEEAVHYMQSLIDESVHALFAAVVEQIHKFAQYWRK

Row | IC50 [µM] | SMILES
1 | < 0.01 | Cc1c(-c2ccnc(Nc3ccnc(C4CC4)n3)c2)cnc(Cl)c1NS(=O)(=O)N(C)C [Compound I-435, N′-{6-chloro-2′-[(cyclopropylpyrimidin-4-yl)amino]-4-methyl-3,4′-bipyridin-5-yl}-N,N-dimethylsulfuric diamide]
2 | > 0.1 | CC(=O)Nc1cc(-c2cnc(C)c(N(CCO)S(=O)(=O)c3ccc(F)cc3F)c2)ccn1 [Compound I-319, N-(5-{[(2,4-difluorophenyl)sulfonyl](2-hydroxyethyl)amino}-6-methyl-3,4′-bipyridin-2′-yl]acetamide]
3 | > 0.1 | CC(=O)Nc1cc(-c2cncc(C(C)=O)c2)ccn1 [Compound I-194, N-(5-acetyl-3,4′-bipyridin-2′-yl)acetamide]
4 | 0.01 to 0.05 | CC(=O)Nc1cc(-c2cnc(C)c(NS(=O)(=O)c3cccc(F)c3F)c2)ccn1 [Compound I-377, N-(5-{[(2,3-difluorophenyl)sulfonyl]amino}-6-methyl-3,4′-bipyridin-2′-yl)acetamide]
5 | > 0.1 | CC(=O)Nc1cc(-c2cncc(NC(=O)c3ccc(F)cc3F)c2)ccn1 [Compound I-419, N-(2′-acetamido-3,4′-bipyridin-5-yl)-2,4-difluorobenzamide]
6 | < 0.01 | CC(=O)Nc1cc(-c2cnc(Cl)c(NS(=O)(=O)c3cc(Cl)ccc3Cl)c2C)ccn1 [Compound I-401, N-(6-chloro-5-{[(2,5-dichlorophenyl)sulfonyl]amino}-4-methyl-3,4′-bipyridin-2′-yl)acetamide]
7 | > 0.1 | CC(=O)Nc1cc(-c2cnc(C)c(NC(=O)c3ccc(F)cc3F)c2)ccn1 [Compound I-115, N-(2′-acetamido-6-methyl-3,4′-bipyridin-5-yl)-2,4-difluorobenzamide]
8 | < 0.01 | CC(=O)Nc1cc(-c2cnc(N(C)C)c(C(=O)N(C)c3ccc(F)cc3F)c2)ccn1 [Compound I-174, 2′-Acetamido-N-(2,4-difluorophenyl)-6-(dimethylamino)-N-methyl-[3,4′-bipyridine]-5-carboxamide]
9 | 0.01 to 0.05 | CC(=O)Nc1cc(-c2cnc(C)c(OS(=O)(=O)c3ccc(F)cc3F)c2)ccn1 [Compound I-478, 2′-acetamido-6-methyl-3,4′-bipyridin-5-yl 2,4-difluorobenzenesulfonate]
10 | > 0.1 | Cc1nccc(Nc2cc(-c3cnc(C)c(NC(=O)Nc4ccccc4)c3)ccn2)n1 [Compound I-439, 1-{6-methyl-2′-[(2-methylpyrimidin-4-yl)amino]-3,4′-bipyridin-5-yl}-3-phenylurea]
11 | > 0.1 | CC(=O)Nc1cc(-c2cnc(C)c(OCC3CC3)c2)ccn1 [Compound I-492, N-[5-(cyclopropylmethoxy)-6-methyl-3,4′-bipyridin-2′-yl]acetamide]
12 | 0.01 to 0.05 | Cc1nccc(Nc2cc(-c3cnc(C)c(C(=O)NCC4CC4)c3)ccn2)n1 [Compound I-285, N-(cyclopropylmethyl)-6-methyl-2′-((2-methylpyrimidin-4-yl)amino)-[3,4′-bipyridine]-5-carboxamide]
13 | < 0.01 | CC(=O)Nc1cc(-c2cnc(N)c(S(=O)(=O)NC3CCCCC3)c2)ccn1 [Compound I-101, N-[6-amino-5-(cyclohexylsulfamoyl)-3,4′-bipyridin-2′-yl]acetamide]
14 | 0.01 to 0.05 | CC(=O)Nc1cc(-c2cncc(S(=O)(=O)N3CCC(F)(F)CC3)c2)ccn1 [Compound I-9, N-{5-[(4,4-difluoropiperidin-1-yl)sulfonyl]-3,4′-bipyridin-2′-yl}acetamide]
15 | > 0.1 | CC(=O)Nc1cc(-c2cnc3c(c2)NS(=O)(=O)N3CC2CC2)ccn1 [Compound I-68, N-{4-[3-(cyclopropylmethyl)-2,2-dioxido-1,3-dihydro[1,2,5]thiadiazolo[3,4-b]pyridin-6-yl)pyridin-2-yl}acetamide]
16 | 0.01 to 0.05 | CC(=O)Nc1cc(-c2cnc3ccn(S(C)(=O)=O)c3c2)ccn1 [Compound I-33, N-{4-[1-(methylsulfonyl)-1H-pyrrolo[3,2-b]pyridin-6-yl]pyridin-2-yl}acetamide]
17 | < 0.01 | CC(=O)Nc1cc(-c2cnc(N)c(C(=O)NC34CC(C3)C4)c2)ccn1 [Compound I-187, 2′-acetamido-6-amino-N-(bicyclo[1.1.1]pent-1-yl)-3,4′-bipyridine-5-carboxamide]
18 | 0.01 to 0.05 | Cc1nccc(Nc2cc(-c3cc(NC(=O)N4CC(F)(F)C4)c4ccnn4c3)ccn2)n1 [Compound I-407, 3,3-difluoro-N-(6-{2-[(2-methylpyrimidin-4-yl)amino]pyridin-4-yl}pyrazolo[1,5-a]pyridin-4-yl)azetidine-1-carboxamide]
19 | > 0.1 | Cc1nccc(Nc2cc(-c3cncc(OC4CCc5c(F)cccc54)c3)ccn2)n1 (stereo not drawn) [Compound I-440, 5-[(4-fluoro-2,3-dihydro-1H-inden-1-yl)oxy]-N-(2-methylpyrimidin-4-yl)-3,4′-bipyridin-2′-amine]
20 | 0.01 to 0.05 | Cc1nccc(Nc2cc(-c3cnc(C)c(C(=S)N4CCC4)c3)ccn2)n1 [Compound I-223, Azetidin-1-yl{6-methyl-2′-[(2-methylpyrimidin-4-yl)amino]-3,4′-bipyridin-5-yl}methanethione]
21 | < 0.01 | CCCCN(CCCC)S(=O)(=O)Nc1cc(-c2ccnc(NC(C)=O)c2)cnc1C [Compound I-350, N-{5-[(dibutylsulfamoyl)amino]-6-methyl-3,4′-bipyridin-2′-yl}acetamide]

Row | IC50 [µM] | SMILES
22 | 0.01 to 0.05 | COc1ncc(-c2ccnc(NC(C)=O)c2)cc1S(=O)(=O)NC12CC(C1)C2 [Compound I-470]
23 | < 0.01 | CC(=O)Nc1cc(-c2cnc(N)c(S(=O)(=O)N(C)c3ccccc3)c2)ccn1 [Compound I-37, N-{6-amino-5-[methyl(phenyl)sulfamoyl]-3,4′-bipyridin-2′-yl}acetamide]
24 | 0.01 to 0.05 | CC(=O)Nc1cc(-c2cnc3[nH]ccc3c2)ccn1 [Compound I-140, N-[4-(1H-pyrrolo[2,3-b]pyridin-5-yl)pyridin-2-yl]acetamide]
25 | > 0.1 | COc1ncc(-c2ccnc(NC(C)=O)c2)cc1NC(=O)c1ccc(F)cc1F [Compound I-347, N-(2′-acetamido-6-methoxy-3,4′-bipyridin-5-yl)-2,4-difluorobenzamide]
26 | 0.01 to 0.05 | CC(=O)Nc1cc(-c2cncc(N3CCCN(C)S3(=O)=O)c2)ccn1 [Compound I-452, N-[5-(6-methyl-1,1-dioxido-1,2,6-thiadiazinan-2-yl)-3,4′-bipyridin-2′-yl]acetamide]
27 | 0.01 to 0.05 | CC(=O)Nc1cc(-c2cncc(S(=O)(=O)NC34CC5CC(CC(C5)C3)C4)c2)ccn1 [Compound I-468, N-[5-(adamantan-1-ylsulfamoyl)-3,4′-bipyridin-2′-yl]acetamide]
28 | 0.01 to 0.05 | CC(=O)Nc1cc(-c2cnc(N)c(C(=O)N3CCCC3)c2)ccn1 [Compound I-15, N-[6-amino-5-(pyrrolidin-1-ylcarbonyl)-3,4′-bipyridin-2′-yl]acetamide]
29 | 0.01 to 0.05 | CC(=O)Nc1cc(-c2cnc(N)c(S(=O)(=O)NCC3CC3)c2)ccn1 [Compound I-108, N-(6-amino-5-[(cyclopropylmethyl)sulfamoyl]-3,4′-bipyridin-2′-yl]acetamide]
30 | 0.05 to 0.1 | CC(=O)Nc1cc(-c2cncc(S(=O)(=O)NCc3ccccc3)c2)ccn1 [Compound I-321, N-[5-(benzylsulfamoyl)-3,4′-bipyridin-2′-yl]acetamide]
31 | < 0.01 | CC(=O)Nc1cc(-c2cnc(C)c(NS(=O)(=O)N3CCOCC3)c2)ccn1 [Compound I-447, N-{6-methyl-5-[(morpholin-4-ylsulfonyl)amino]-3,4′-bipyridin-2′-yl}acetamide]
32 | < 0.01 | COc1ncc(-c2ccnc(NC(C)=O)c2)cc1S(=O)(=O)Nc1ccccc1 [Compound I-39, N-[6-methoxy-5-(phenylsulfamoyl)-3,4′-bipyridin-2′-yl]acetamide]
33 | < 0.01 | CCN(CC)C(=O)c1cc(-c2ccnc(NC(C)=O)c2)cnc1N [Compound I-27, 2′-acetamido-6-amino-N,N-diethyl-3,4′-bipyridine-5-carboxamide]
34 | 0.01 to 0.05 | CNc1ncc(-c2ccnc(NC(C)=O)c2)cc1C(=O)NC12CC(C1)C2 [Compound I-160, 2′-acetamido-N-(bicyclo[1.1.1]pent-1-yl)-6-(methylamino)-3,4′-bipyridine-5-carboxamide]
35 | < 0.01 | CC(=O)Nc1cc(-c2cnc(C)c(NS(=O)(=O)c3cc(C)ccc3C)c2)ccn1 [Compound I-178, N-(5-{[(2,5-dimethylphenyl)sulfonyl]amino}-6-methyl-3,4′-bipyridin-2′-yl)acetamide]
36 | 0.01 to 0.05 | CC(=O)Nc1cc(-c2cnc(C)c(S(=O)(=O)Nc3ccc(F)cc3F)c2)ccn1 [Compound I-353, N-(5-(N-(2,4-difluorophenyl)sulfamoyl)-6-methyl-[3,4′-bipyridin]-2′-yl)acetamide]
37 | < 0.01 | CC(=O)Nc1cc(-c2cnc(N)c(C(=O)Nc3ccccc3Cl)c2)ccn1 [Compound I-136, 2′-acetamido-6-amino-N-(2-chlorophenyl)-3,4′-bipyridine-5-carboxamide]
38 | < 0.01 | Cc1nccc(Nc2cc(-c3cnc(Cl)c(NS(=O)(=O)N(C)C)c3C)ccn2)n1 [Compound I-381, N′-{6-chloro-4-methyl-2′-[(2-methylpyrimidin-4-yl)amino]-3,4′-bipyridin-5-yl}-N,N-dimethylsulfuric diamide]
39 | < 0.01 | CC(=O)Nc1cc(-c2cnc(C)c(NS(=O)(=O)c3ccc(OC(F)(F)F)cc3Cl)c2)ccn1 [Compound I-113, N-[5-({[2-chloro-4-(trifluoromethoxy)phenyl]sulfonyl}amino)-6-methyl-3,4′-bipyridin-2′-yl]acetamide]
40 | 0.01 to 0.05 | Cc1cnc(NC(=O)C2CC2)cc1-c1cnc(C)c(NS(=O)(=O)c2ccc(F)cc2F)c1 [Compound I-4, N-(5-{[(2,4-difluorophenyl)sulfonyl]amino}-5′,6-dimethyl-3,4′-bipyridin-2′-yl)cyclopropanecarboxamide]
41 | < 0.01 | Cc1ncc(-c2ccnc(Nc3ccncn3)c2)cc1NS(=O)(=O)c1ccc(F)cc1F [Compound I-239, 2,4-difluoro-N-(6-methyl-2′-(pyrimidin-4-ylamino)-3,4′-bipyridin-5-yl]benzenesulfonamide]
42 | < 0.01 | CC(=O)Nc1cc(-c2cnc(C)c(NS(=O)(=O)c3c(Cl)cccc3Cl)c2)ccn1 [Compound I-463, N-[5-{[(2,6-dichlorophenyl)sulfonyl]amino}-6-methyl-3,4′-bipyridin-2′-yl)acetamide]
